Tests used:
trypsin = trypsin counter screen
purified HDAC8 = molecular target: T1, purified HDAC8 (Homo sapiens, UniProt Q9BY41); test: small-molecule microarray; assay type: binding; conditions: SMM screen
T1 sequence (Q9BY41 1-377): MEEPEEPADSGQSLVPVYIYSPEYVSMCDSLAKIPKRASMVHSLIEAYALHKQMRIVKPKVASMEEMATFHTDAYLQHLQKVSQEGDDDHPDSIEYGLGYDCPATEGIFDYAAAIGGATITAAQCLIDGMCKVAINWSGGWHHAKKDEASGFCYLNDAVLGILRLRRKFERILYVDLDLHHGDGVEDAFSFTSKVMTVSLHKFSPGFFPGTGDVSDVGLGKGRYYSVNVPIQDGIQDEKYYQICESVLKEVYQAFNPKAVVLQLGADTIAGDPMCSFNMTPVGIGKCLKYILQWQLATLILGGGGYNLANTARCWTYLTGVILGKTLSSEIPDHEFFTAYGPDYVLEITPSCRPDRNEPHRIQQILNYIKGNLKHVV

[1] = tested on: acetylated α-tubulin in HeLa cells; test: immunofluorescence, acetylated α-tubulin in HeLa cells; assay type: cell-based; conditions: 16 h, normalized to DMSO control
[2] = tested on: acetylated lysine in HeLa cells; test: immunofluorescence, acetylated lysine in HeLa cells; assay type: cell-based; conditions: 16 h, normalized to DMSO control

| SMILES | interference with the proteolytic activity of trypsin (trypsin) | binding to purified HDAC8 on small-molecule microarray (purified HDAC8) | acetylated α-tubulin level [1] | acetylated lysine level [2] |
| --- | --- | --- | --- | --- |
| CC(=O)Nc1ccc(C(=O)CSc2nc(C)cc(O)n2)cc1 [Compound 7] | does not interfere with the proteolytic activity of trypsin | binder | – | – |
| Nc1ccccc1NC(=O)c1ccc(CNC(=O)OCc2cccnc2)cc1 [MS-275] | – | – | little change in tubulin acetylation | increased global lysine acetylation |
| O=C(CCCCCCC(=O)Nc1ccccc1)NO [SAHA, suberoylanilide hydroxamic acid] | – | – | increases both global lysine and α-tubulin acetylation levels | increases both global lysine and α-tubulin acetylation levels |
